Assay results reported in PubChem BioAssay (NCI).
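Five compound concentrations were applied to cells in 96-well plates for 48 hours; endpoints were derived by simple linear interpolation of the resulting dose-response curve. Definition used: TGI = concentration required for complete inhibition of growth.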

What was measured:
Assay in all cases: NCI tumour cell line growth inhibition, 48 h
TK-10 renal = test system: TK-10 renal
HL-60(TB) leukemia = test system: HL-60(TB) leukemia
MCF7 breast = test system: MCF7 breast
A498 renal = test system: A498 renal
NCI/ADR-RES ovarian = test system: NCI/ADR-RES ovarian
A549 NSCLC = test system: A549 NSCLC
U251 CNS = test system: U251 CNS
T-47D breast = test system: T-47D breast
PC-3 prostate = test system: PC-3 prostate
MOLT-4 leukemia = test system: MOLT-4 leukemia
MDA-MB-231 breast = test system: MDA-MB-231 breast
ACHN renal = test system: ACHN renal
COLO 205 colon = test system: COLO 205 colon
SNB-75 CNS = test system: SNB-75 CNS
SF-539 CNS = test system: SF-539 CNS
HS 578T breast = test system: HS 578T breast
HCT-116 colon = test system: HCT-116 colon
SK-MEL-2 melanoma = test system: SK-MEL-2 melanoma
IGROV1 ovarian = test system: IGROV1 ovarian
K-562 leukemia = test system: K-562 leukemia
HCC-2998 colon = test system: HCC-2998 colon
SK-MEL-5 melanoma = test system: SK-MEL-5 melanoma
MDA-MB-435 = test system: MDA-MB-435
BT-549 breast = test system: BT-549 breast
HOP-62 NSCLC = test system: HOP-62 NSCLC
CCRF-CEM leukemia = test system: CCRF-CEM leukemia
UACC-257 melanoma = test system: UACC-257 melanoma
HT29 colon = test system: HT29 colon
SF-268 CNS = test system: SF-268 CNS
SK-OV-3 ovarian = test system: SK-OV-3 ovarian
786-0 renal = test system: 786-0 renal
SR leukemia = test system: SR leukemia
OVCAR-8 ovarian = test system: OVCAR-8 ovarian
NCI-H23 lung = test system: NCI-H23 lung
OVCAR-4 ovarian = test system: OVCAR-4 ovarian
UO-31 renal = test system: UO-31 renal
OVCAR-3 ovarian = test system: OVCAR-3 ovarian
NCI-H226 lung = test system: NCI-H226 lung
M14 melanoma = test system: M14 melanoma
OVCAR-5 ovarian = test system: OVCAR-5 ovarian
SNB-19 CNS = test system: SNB-19 CNS
MDA-N = test system: MDA-N
CAKI-1 renal = test system: CAKI-1 renal
RPMI-8226 leukemia = test system: RPMI-8226 leukemia
UACC-62 melanoma = test system: UACC-62 melanoma
SF-295 CNS = test system: SF-295 CNS
HCT-15 colon = test system: HCT-15 colon
HOP-92 NSCLC = test system: HOP-92 NSCLC
SK-MEL-28 melanoma = test system: SK-MEL-28 melanoma
SN12C renal = test system: SN12C renal
EKVX NSCLC = test system: EKVX NSCLC
LOX IMVI melanoma = test system: LOX IMVI melanoma
NCI-H522 lung = test system: NCI-H522 lung
SW-620 colon = test system: SW-620 colon
KM12 colon = test system: KM12 colon
DU-145 prostate = test system: DU-145 prostate
NCI-H460 lung = test system: NCI-H460 lung

O=C(O)CN(CC(=O)O)Cc1cc2c(cc1O)Oc1cc(O)c(CN(CC(=O)O)CC(=O)O)cc1C21OC(=O)c2ccccc21
TGI (TK-10 renal): > 100 µM
TGI (HL-60(TB) leukemia): > 100 µM
TGI (MCF7 breast): > 100 µM
TGI (A498 renal): > 100 µM
TGI (NCI/ADR-RES ovarian): > 100 µM
TGI (A549 NSCLC): > 100 µM
TGI (U251 CNS): > 100 µM
TGI (T-47D breast): > 100 µM
TGI (PC-3 prostate): > 100 µM
TGI (MOLT-4 leukemia): > 100 µM
TGI (MDA-MB-231 breast): > 100 µM
TGI (ACHN renal): > 100 µM
TGI (COLO 205 colon): > 100 µM
TGI (SNB-75 CNS): > 100 µM
TGI (SF-539 CNS): > 100 µM
TGI (HS 578T breast): > 100 µM
TGI (HCT-116 colon): > 100 µM
TGI (SK-MEL-2 melanoma): > 100 µM
TGI (IGROV1 ovarian): > 100 µM
TGI (K-562 leukemia): > 100 µM
TGI (HCC-2998 colon): > 100 µM
TGI (SK-MEL-5 melanoma): > 100 µM
TGI (MDA-MB-435): > 100 µM
TGI (BT-549 breast): > 100 µM
TGI (HOP-62 NSCLC): > 100 µM
TGI (CCRF-CEM leukemia): > 100 µM
TGI (UACC-257 melanoma): > 100 µM
TGI (HT29 colon): > 100 µM
TGI (SF-268 CNS): > 100 µM
TGI (SK-OV-3 ovarian): > 100 µM
TGI (786-0 renal): > 100 µM
TGI (SR leukemia): > 100 µM
TGI (OVCAR-8 ovarian): > 100 µM
TGI (NCI-H23 lung): > 100 µM
TGI (OVCAR-4 ovarian): > 100 µM
TGI (UO-31 renal): > 100 µM
TGI (OVCAR-3 ovarian): > 100 µM
TGI (NCI-H226 lung): > 100 µM
TGI (M14 melanoma): > 100 µM
TGI (OVCAR-5 ovarian): > 100 µM
TGI (SNB-19 CNS): > 100 µM
TGI (MDA-N): > 100 µM
TGI (CAKI-1 renal): > 100 µM
TGI (RPMI-8226 leukemia): > 100 µM
TGI (UACC-62 melanoma): > 100 µM
TGI (SF-295 CNS): > 100 µM
TGI (HCT-15 colon): > 100 µM
TGI (HOP-92 NSCLC): > 100 µM
TGI (SK-MEL-28 melanoma): > 100 µM
TGI (SN12C renal): > 100 µM
TGI (EKVX NSCLC): > 100 µM
TGI (LOX IMVI melanoma): > 100 µM
TGI (NCI-H522 lung): > 100 µM
TGI (SW-620 colon): > 100 µM
TGI (KM12 colon): > 100 µM
TGI (DU-145 prostate): > 100 µM

COCC[N+](CCNC(=O)c1cccc2c(N)c3cccc(C)c3nc12)(CCOC)Cc1ccc([N+](=O)[O-])cc1
TGI (TK-10 renal): > 100 µM
TGI (HL-60(TB) leukemia): 40.1 µM
TGI (MCF7 breast): 89.8 µM
TGI (NCI/ADR-RES ovarian): > 100 µM
TGI (A549 NSCLC): > 100 µM
TGI (U251 CNS): > 100 µM
TGI (T-47D breast): 37.3 µM
TGI (PC-3 prostate): > 100 µM
TGI (MOLT-4 leukemia): 39.2 µM
TGI (MDA-MB-231 breast): 58.8 µM
TGI (ACHN renal): > 100 µM
TGI (COLO 205 colon): 43 µM
TGI (SNB-75 CNS): 61.7 µM
TGI (SF-539 CNS): 56.7 µM
TGI (HS 578T breast): 39.3 µM
TGI (HCT-116 colon): 58 µM
TGI (SK-MEL-2 melanoma): > 100 µM
TGI (IGROV1 ovarian): 33.5 µM
TGI (HCC-2998 colon): 27.2 µM
TGI (SK-MEL-5 melanoma): 22.9 µM
TGI (MDA-MB-435): 83.4 µM
TGI (BT-549 breast): 64.5 µM
TGI (HOP-62 NSCLC): > 100 µM
TGI (CCRF-CEM leukemia): 58.1 µM
TGI (UACC-257 melanoma): 46 µM
TGI (HT29 colon): 76.5 µM
TGI (SF-268 CNS): 87.5 µM
TGI (786-0 renal): > 100 µM
TGI (SR leukemia): 35.3 µM
TGI (OVCAR-8 ovarian): > 100 µM
TGI (NCI-H23 lung): > 100 µM
TGI (OVCAR-4 ovarian): > 100 µM
TGI (UO-31 renal): > 100 µM
TGI (OVCAR-3 ovarian): 99.1 µM
TGI (M14 melanoma): > 100 µM
TGI (OVCAR-5 ovarian): > 100 µM
TGI (SNB-19 CNS): > 100 µM
TGI (MDA-N): > 100 µM
TGI (CAKI-1 renal): > 100 µM
TGI (RPMI-8226 leukemia): 27.2 µM
TGI (UACC-62 melanoma): 42.5 µM
TGI (SF-295 CNS): > 100 µM
TGI (HCT-15 colon): > 100 µM
TGI (NCI-H460 lung): 29.5 µM
TGI (HOP-92 NSCLC): 94.6 µM
TGI (SK-MEL-28 melanoma): 52 µM
TGI (SN12C renal): > 100 µM
TGI (EKVX NSCLC): 67.3 µM
TGI (LOX IMVI melanoma): 81.5 µM
TGI (NCI-H522 lung): 36.3 µM
TGI (SW-620 colon): > 100 µM
TGI (KM12 colon): 30.9 µM
TGI (DU-145 prostate): 59.1 µM
